From patent publication US12157746B2, “Tetrahydro-1H-pyrazino[2,1-a]isoindolylquinoline compounds for the treatment of autoimmune disease” (F. HOFFMANN-LA ROCHE AG, priority 2018, dated 2024)

target: T1, human TLR9 (Homo sapiens, UniProt Q9NR96); assay: HEK293-Blue-hTLR-9 cells assay; type: cell-based; conditions: HEK293-Blue-hTLR9 cells, ODN2006 stimulation, 20 hrs, SEAP reporter; read-out: HEK/hTLR9 IC50
T1 sequence (Q9NR96 26-1032): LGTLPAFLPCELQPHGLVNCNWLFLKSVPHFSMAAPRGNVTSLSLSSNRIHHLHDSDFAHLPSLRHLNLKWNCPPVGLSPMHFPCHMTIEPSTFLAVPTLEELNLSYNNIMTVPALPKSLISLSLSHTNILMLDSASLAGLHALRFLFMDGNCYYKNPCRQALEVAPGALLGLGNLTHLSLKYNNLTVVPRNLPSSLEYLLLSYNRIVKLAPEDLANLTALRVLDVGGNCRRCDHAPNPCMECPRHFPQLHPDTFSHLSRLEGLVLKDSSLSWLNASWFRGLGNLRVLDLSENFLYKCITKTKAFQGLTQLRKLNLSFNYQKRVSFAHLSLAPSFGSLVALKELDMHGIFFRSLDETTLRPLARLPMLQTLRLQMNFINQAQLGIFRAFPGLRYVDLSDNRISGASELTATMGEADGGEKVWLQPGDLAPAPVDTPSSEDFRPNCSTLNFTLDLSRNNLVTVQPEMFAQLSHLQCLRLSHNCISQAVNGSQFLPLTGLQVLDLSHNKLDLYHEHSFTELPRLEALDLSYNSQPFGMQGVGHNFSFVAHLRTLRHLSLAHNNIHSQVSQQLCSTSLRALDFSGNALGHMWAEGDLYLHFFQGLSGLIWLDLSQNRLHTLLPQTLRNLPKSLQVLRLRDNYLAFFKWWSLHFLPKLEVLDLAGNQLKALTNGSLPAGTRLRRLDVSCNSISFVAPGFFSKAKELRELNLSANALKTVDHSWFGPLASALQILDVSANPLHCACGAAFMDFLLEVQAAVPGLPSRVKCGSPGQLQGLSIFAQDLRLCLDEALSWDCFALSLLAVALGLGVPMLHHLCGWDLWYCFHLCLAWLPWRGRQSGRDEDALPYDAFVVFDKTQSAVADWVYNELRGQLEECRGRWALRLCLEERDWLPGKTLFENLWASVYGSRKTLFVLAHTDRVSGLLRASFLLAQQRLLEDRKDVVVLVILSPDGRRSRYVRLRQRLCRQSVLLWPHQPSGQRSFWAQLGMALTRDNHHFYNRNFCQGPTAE
Text: HEK293-Blue-hTLR-9 Cells Assay:
A stable HEK293-Blue-hTLR-9 cell line was purchased from InvivoGen (Cat. #: hkb-htlr9, San Diego. California USA). These cells were originally designed for studying the stimulation of human TLR9 by monitoring the activation of NF-κB. A SEAP (secreted embryonic alkaline phosphatase) reporter gene was placed under the control of the IFN-β minimal promoter fused to five NF-κB and AP-1-binding sites. The SEAP was induced by activating NF-κB and AP-1 via stimulating HEK-Blue hTLR9 cells with TLR9 ligands. Therefore the reporter expression was declined by TLR9 antagonist under the stimulation of a ligand, such as ODN2006 (Cat. #: tlrl-2006-1, Invivogen, San Diego, California USA), for incubation of 20 hrs. The cell culture supernatant SEAP reporter activity was determined using QUANTI-Blue™ kit (Cat. #: rep-qb1, Invivogen, San Diego, California, USA) at a wavelength of 640 nm, a detection medium that turns purple or blue in the presence of alkaline phosphatase.
HEK293-Blue-hTLR9 cells were incubated at a density of 250.000-450,000 cells/mL in a volume of 170 μL in a 96-well plate in Dulbecco's Modified Eagle's medium (DMEM) containing 4.5 g/L glucose, 50 U/mL penicillin, […], […], 2 mM L-glutamine, 10% (v/v) heat-inactivated fetal bovine serum with addition of 20 μL test compound 1n a serial dilution in the presence of final DMSO at 1% and 10 μL of 20 uM ODN2006 in above DMEM, perform incubation under 37° C. in a CO2 incubator for 20 hrs. Then 20 μL of the supernatant from each well was incubated with 180 μL Quanti-blue substrate solution at 37° C. for 2 h and the absorbance was read at 620˜655 nm using a spectrophotometer. The signaling pathway that TLR9 activation leads to downstream NF-κB activation has been widely accepted, and therefore similar reporter assay was modified for evaluating TLR9 antagonist.

`C[C@@H]1CN(c2ccc(C#N)c3ncccc23)C[C@@H]2c3ccc(N4C[C@@H](N)[C@H](F)C4)cc3CN12` [Example 48, 5-[(4R,10bS)-8-[(3R,4R)-3-amino-4-fluoro-pyrrolidin-1-yl]-4-methyl-3,4,6,10b-tetrahydro-1H-pyrazino[2,1-a]isoindol-2-yl]quinoline-8-carbonitrile] and `C[C@@H]1CN(c2ccc(C#N)c3ncccc23)C[C@@H]2c3ccc(N4C[C@@H](F)[C@@H](N)C4)cc3CN12` [Example 46, 5-[(4R,10bS)-8-[(3S,4R)-3-amino-4-fluoro-pyrrolidin-1-yl]-4-methyl-3,4,6,10b-tetrahydro-1H-pyrazino[2,1-a]isoindol-2-yl]quinoline-8-carbonitrile] are within 1.5-fold of each other in IC50: 193 nM for the first, 144 nM for the second.

First: C[C@@H]1CN(c2ccc(C#N)c3ncccc23)C[C@@H]2c3cccc(N4CCNCC4)c3CN12 [Example 8, 5-[(4R,10bS)-4-methyl-7-piperazin-1-yl-3,4,6,10b-tetrahydro-1H-pyrazino[2,1-a]isoindol-2-yl]quinoline-8-carbonitrile]
Second: C[C@@H]1CN(c2ccc(C#N)c3ncccc23)C[C@@H]2c3ccc(N4CCNC[C@@H](O)C4)cc3CN12 [Example 53B, 5-[(4R,10bS)-8-[(6R)-6-hydroxy-1,4-diazepan-1-yl]-4-methyl-3,4,6,10b-tetrahydro-1H-pyrazino[2,1-a]isoindol-2-yl]quinoline-8-carbonitrile]
The IC50 of the first is 2.2-fold higher: 150 nM for the first, 68 nM for the second.

`C[C@@H]1CN(c2ccc(C#N)c3ncccc23)C[C@@H]2c3ccc(N4CCOC5(CNC5)C4)cc3CN12` [Example 24, 5-[(4R,10bS)-4-methyl-8-(5-oxa-2,8-diazaspiro[3.5]nonan-8-yl)-3,4,6,10b-tetrahydro-1H-pyrazino[2,1-a]isoindol-2-yl]quinoline-8-carbonitrile] and `C[C@@H]1CN(c2ccc(C#N)c3ncccc23)C[C@@H]2c3ccc(N4CCNCC(C)(O)C4)cc3CN12` (stereo partly drawn) [Example 55, 5-[(4R,10S)-8-(6-hydroxy-6-methyl-1,4-diazepan-1-yl)-4-methyl-3,4,6,10b-tetrahydro-1H-pyrazino[2,1-a]isoindol-2-yl]quinoline-8-carbonitrile] are within 1.5-fold of each other in IC50: 90.5 nM for the first, 118 nM for the second.

`C[C@@H]1CN(c2ccc(C#N)c3ncccc23)C[C@@H]2c3ccc(N4C[C@@H](N)[C@](C)(O)C4)cc3CN12` [Example 45, 5-[(4R,10bS)-4-methyl-8-[trans-(3R,4R)-4-amino-3-hydroxy-3-methyl-pyrrolidin-1-yl]-3,4,6,10b-tetrahydro-1H-pyrazino[2,1-a]isoindol-2-yl]quinoline-8-carbonitrile] and `C[C@@H]1CN(c2ccc(C#N)c3ncccc23)C[C@@H]2c3ccc(N4CC[C@@H](N)C4)cc3CN12` [Example 20, 5-[(4R,10bS)-8-[(3R)-3-aminopyrrolidin-1-yl]-4-methyl-3,4,6,10b-tetrahydro-1H-pyrazino[2,1-a]isoindol-2-yl]quinoline-8-carbonitrile] are within 1.5-fold of each other in IC50: 78.5 nM for the first, 86.9 nM for the second.

`C[C@@H]1CN(c2ccc(C#N)c3ncccc23)C[C@@H]2c3ccc(N4C[C@@H](N)[C@@H](F)C4)cc3CN12` [Example 47, 5-[(4R,10bS)-8-[(3R,4S)-3-amino-4-fluoro-pyrrolidin-1-yl]-4-methyl-3,4,6,10b-tetrahydro-1H-pyrazino[2,1-a]isoindol-2-yl]quinoline-8-carbonitrile] and `C[C@@H]1CN(c2ccc(C#N)c3ncccc23)C[C@@H]2c3ccc(N4C[C@H](N)[C@@H](F)C4)cc3CN12` [Example 49, 5-[(4R,10bS)-8-[(3S,4S)-3-amino-4-fluoro-pyrrolidin-1-yl]-4-methyl-3,4,6,10b-tetrahydro-1H-pyrazino[2,1-a]isoindol-2-yl]quinoline-8-carbonitrile] are within 1.5-fold of each other in IC50: 146 nM for the first, 186 nM for the second.

Compared with `COC1CN(c2ccc3c(c2)CN2C3CN(c3ccc(C#N)c4ncccc34)C[C@H]2C)CC1N` (single isomer, unassigned) [Example 16B], `C[C@@H]1CN(c2ccc(C#N)c3ncccc23)C[C@@H]2c3ccc(C4CNC4)cc3CN12` [Example 29, 5-[(4R,10bS)-8-(azetidin-3-yl)-4-methyl-3,4,6,10b-tetrahydro-1H-pyrazino[2,1-a]isoindol-2-yl]quinoline-8-carbonitrile] is 2.3-fold lower in IC50: 97.5 nM for the first, 43.3 nM for the second.

`C[C@@H]1CN(c2ccc(C#N)n3nccc23)C[C@@H]2c3ccc(N4CC[C@@](C)(N)C4)cc3CN12` [Example 103, 4-[(4R,10bS)-8-[(3R)-3-amino-3-methyl-pyrrolidin-1-yl]-4-methyl-3,4,6,10b-tetrahydro-1H-pyrazino[2,1-a]isoindol-2-yl]pyrazolo[1,5-a]pyridine-7-carbonitrile] and `C[C@@H]1CN(c2ccc(C#N)n3nccc23)C[C@@H]2c3ccc(N4C[C@@H](N)[C@](C)(O)C4)cc3CN12` [Example 108, 4-[(4R,10bS)-8-[(3R,4R)-4-amino-3-hydroxy-3-methyl-pyrrolidin-1-yl]-4-methyl-3,4,6,10b-tetrahydro-1H-pyrazino[2,1-a]isoindol-2-yl]pyrazolo[1,5-a]pyridine-7-carbonitrile] are within 1.5-fold of each other in IC50: 142 nM for the first, 126 nM for the second.

`[2H]c1ccc2c(N3C[C@@H](C)N4Cc5cc(N6CC7CNCC(C6)O7)ccc5[C@H]4C3)ccc(C#N)c2n1` [Example 93, 5-[(4R,10bS)-4-methyl-8-(9-oxa-3,7-diazabicyclo[3.3.1]nonan-3-yl)-3,4,6,10b-tetrahydro-1H-pyrazino[2,1-a]isoindol-2-yl]-2-deuterio-quinoline-8-carbonitrile] and `[2H]c1ccc2c(N3C[C@@H](C)N4Cc5cc(N[C@H]6CNC[C@H]6F)ccc5[C@H]4C3)ccc(C#N)c2n1` [Example 91, 5-[(4R,10bS)-8-[[(3S,4R)-4-fluoropyrrolidin-3-yl]amino]-4-methyl-3,4,6,10b-tetrahydro-1H-pyrazino[2,1-a]isoindol-2-yl]-2-deuterio-quinoline-8-carbonitrile] are within 1.5-fold of each other in IC50: 69.9 nM for the first, 70.5 nM for the second.

Compared with `C[C@@H]1CN(c2ccc(C#N)c3ncccc23)C[C@@H]2c3ccc(N[C@H]4CNC[C@H]4F)cc3CN12` [Example 30, 5-[(4R,10bS)-8-[[(3S,4R)-4-fluoropyrrolidin-3-yl]amino]-4-methyl-3,4,6,10b-tetrahydro-1H-pyrazino[2,1-a]isoindol-2-yl]quinoline-8-carbonitrile], `C[C@@H]1CN(c2ccc(C#N)c3ncccc23)C[C@@H]2c3ccc(N4CCOC5CNCC54)cc3CN12` (stereo partly drawn) [Example 52, 5-[(4R,10bS)-8-(3,4a,5,6,7,7a-hexahydro-2H-pyrrolo[3,4-b][1,4]oxazin-4-yl)-4-methyl-3,4,6,10b-tetrahydro-1H-pyrazino[2,1-a]isoindol-2-yl]quinoline-8-carbonitrile] is 2-fold higher in IC50: 96.6 nM for the first, 195 nM for the second. The first is the more potent here.

`C[C@@H]1CN(c2ccc(C#N)c3ncccc23)C[C@@H]2c3ccc(C4CCNCC4)cc3CN12` [Example 9, 5-[(4R,10bS)-4-methyl-8-(4-piperidyl)-3,4,6,10b-tetrahydro-1H-pyrazino[2,1-a]isoindol-2-yl]quinoline-8-carbonitrile] and `C[C@@H]1CN(c2ccc(C#N)n3nccc23)C[C@@H]2c3ccc(N4CC[C@@H](N)C4)cc3CN12` [Example 96, 4-[(4R,10bS)-8-[(3R)-3-aminopyrrolidin-1-yl]-4-methyl-3,4,6,10b-tetrahydro-1H-pyrazino[2,1-a]isoindol-2-yl]pyrazolo[1,5-a]pyridine-7-carbonitrile] are within 1.5-fold of each other in IC50: 130 nM for the first, 193 nM for the second.
